Where “and” joins values, the source holds several entries; their conditions need not be identical. Equal values may be shown once.
How the values were obtained:
[1] = biological target: PR10-12; assay: Isothermal titration calorimetry; format: binding, Papaver somniferum; details: ITC, PBS pH 7.4, 25 °C, single-site model
Method: (§1) ITC experiments were conducted using a Microcal VP instrument (Malvern Pananalytical, Malvern, UK). Recombinant MLP/PR10 protein preparation involving production in Escherichia coli followed by cobalt-affinity chromatography was optimized to yield relatively high purity in a single step as determined by SDS-PAGE and colloidal Coomassie blue silver staining. The less than 48 h decrease in atmospheric oxygen exposure generated high-quality proteins with reduced precipitate. […] Eluates were twice dialysed to equilibrium (i.e., 10–12 h at 4 °C) against a 1000-fold (2–4 L) volume of PBS, pH 7.4 (25 mM sodium phosphate, 50 mM NaCl) or CBS, pH 5.5, resulting in a theoretical million-fold dilution of undesired small molecules (e.g., <0.2 µM imidazole). Dialysis was carried out in boiled Spectra/Por 1 6–8 kDa MWCO 0.32 ml/cm (Spectrum Labs, USA) tubing thoroughly washed with either buffer before use. The second 1000-fold volume of dialysis buffer was filtered and degassed using a reusable bottle-top filtration apparatus (Nalgene, USA) with disposable […] cellulose filters (VWR, Canada) prior to storage at 4 °C. Ligands were dissolved in the filtered dialysis buffer at 21 °C for approximately one hour, and any insoluble material was removed by repeated centrifugation at 21,000 × g for 10 min. No change in pH occurred following substrate addition. Prior to ITC, which was initiated immediately following dialysis, the protein solutions were centrifuged at 17,000 × g and 4 °C for 30 min. Any precipitate was separated from the remaining soluble protein fraction which was quantified by absorption at A280nm and diluted with filtered dialysis buffer immediately before use.
(§2) Thermograms were recorded at 25 °C, with a reference power of 10 (dpu/sec) and monitoring of 30 injections of 9 µl BIA ligand solutions into a sample cell containing 1.4 ml of an MLP/PR10 protein solution, with 300 seconds between injections. Protein concentrations varied from 10 to 150 µM to achieve an optimal C value and curve shape valid for parameter calculation. […] To ensure that we report only the heat of reaction for each interaction, independent titrations of ligand into buffer, and buffer into protein solutions, were used to calculate and then subtract heats of dilution. After subtraction, binding isotherms were analyzed in MicroCal Origin 7 (MicroCal, USA) by fitting a single-site binding model using non-linear least squares regression analysis repeated until convergence. […] Each ITC experiment was repeated 2 to 4 times.

[2] = biological target: T1, NISO (Papaver somniferum, UniProt P0DYP9); assay: ANS displacement assay; details: for IC50: IC50, NISO; for IC50 / Log10IC50: 10 µM protein and 10 µM ANS, CBS pH 5.5; for Log10IC50 / Hill Slope: NISO; for Hill Slope: ANS displacement dose-response fit
T1 sequence (P0DYP9 entry or part of it): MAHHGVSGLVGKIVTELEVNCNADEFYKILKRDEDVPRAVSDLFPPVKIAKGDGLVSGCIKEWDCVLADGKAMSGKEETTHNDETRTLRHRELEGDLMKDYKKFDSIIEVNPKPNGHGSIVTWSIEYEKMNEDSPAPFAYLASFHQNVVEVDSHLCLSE
Method: (§5) 8-anilino-1-naphthalenesulfonic acid (ANS) fluorescence binding curves and the binding-induced reduction in ANS fluorescence resulting from competition with tested ligands across a range of concentration facilitated the measurement of IC50 and an estimate of Kd values using the binding models and procedures described previously[70]. […] ANS was dissolved in dimethylsufoxide at a concentration of 20 mM, stored at −20 °C until dilution and protected from exposure to light. […] 40 µl of the ANS solution and 40 µl of each MLP/PR10 protein solution were combined to 80 µl final reaction volumes, which were incubated at 21 °C for 10 min to allow equilibration of binding. Triplicate 18-µl aliquots were withdrawn from each 80 µl reaction, transferred to optically clear PCR tubes (Diamed, Canada) and ANS fluorescence was measured following an additional 3-min incubation at 30 °C using a Qiagen Rotor-gene Q 6-plex with excitation and emission filters of 365 ± 20 nm and 460 ± 20 nm, respectively. An identical reaction series whereby protein was omitted from the mixtures was measured under identical conditions and trace fluorescence was subtracted from each MLP/PR10 protein-containing sample. Each data set was scaled so that the maximum observed fluorescence corresponded to 100% and individual data points were plotted, and a rectangular hyperbolic ligand binding function was fit, using least-squares analysis (Prism 5 software, Graphpad, USA). Experiments were repeated at least twice with independently prepared protein.
(§6) Displacement of ANS is associated with reduced fluorescence. […] Briefly, 40 µl of 20 µM ANS and individual MLP/ PR10 protein solutions were combined in CBS buffer, pH 5.5, incubated at 21 °C for 5 min, mixed with 40 µl of separate 0 to 6 mM BIA solutions in CBS buffer, pH 5.5, and the 80 µl reactions were subsequently incubated for 10 min at 21 °C. Fluorescence was measured as described above, including subtraction of any fluorescence in a blank series whereby protein was omitted. […] Each experiment was repeated at least twice with independently prepared MLP/PR10 proteins and BIA ligand.

[3] = biological target: PR10-4; assay: ANS displacement assay; format: binding, Papaver somniferum
Excerpt: (§3) Eluates were store separately on ice.
(§4) Displacement of ANS is associated with reduced fluorescence.

[4] = biological target: MLP2; assay: ANS displacement assay; format: binding, Papaver somniferum; details: for IC50 / Log10IC50: 10 µM protein and 10 µM ANS, CBS pH 5.5; for Kd: from average IC50 and PR10-ANS Kd, competitive inhibition assumed, read-out: Estimated Kd
Excerpt: as §3, §4

[5] = biological target: PR10-12; assay: ANS displacement assay; format: binding, Papaver somniferum; details: for IC50 / Log10IC50: 10 µM protein and 10 µM ANS, CBS pH 5.5; for Kd: from average IC50 and PR10-ANS Kd, competitive inhibition assumed, read-out: Estimated Kd
Excerpt: as §3, §4

[6] = biological target: THS2 (Papaver somniferum, UniProt A0A2U9GGW3); assay: Isothermal titration calorimetry; format: binding; parameters: made in house; host or cells: E. coli ArcticExpress (DE3); details: ITC, PBS pH 7.4, 25 °C; for N / Kd: single-site model
Sequence of THS2 (A0A2U9GGW3 whole entry): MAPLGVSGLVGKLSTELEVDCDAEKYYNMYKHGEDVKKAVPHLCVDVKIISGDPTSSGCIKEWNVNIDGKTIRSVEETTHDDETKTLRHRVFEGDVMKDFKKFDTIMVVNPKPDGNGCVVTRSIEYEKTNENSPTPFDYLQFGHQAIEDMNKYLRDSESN
Method: as §1, with “UK).” for “UK). Recombinant MLP/PR10 protein preparation involving production in Escherichia coli followed by cobalt-affinity chromatography was optimized to yield relatively high purity in a single step as determined by SDS-PAGE and colloidal Coomassie blue silver staining. The less than 48 h decrease in atmospheric oxygen exposure generated high-quality proteins with reduced precipitate.”, “No change in pH occurred following substrate addition.” left out
as §2, with “injections.” for “injections. Protein concentrations varied from 10 to 150 µM to achieve an optimal C value and curve shape valid for parameter calculation.”

[7] = biological target: T1, NISO; assay: Isothermal titration calorimetry; format: binding; parameters: made in house; host or cells: E. coli ArcticExpress (DE3); details: ITC, PBS pH 7.4, 25 °C; for N / Kd: single-site model
Method: as §1, with “UK).” for “UK). Recombinant MLP/PR10 protein preparation involving production in Escherichia coli followed by cobalt-affinity chromatography was optimized to yield relatively high purity in a single step as determined by SDS-PAGE and colloidal Coomassie blue silver staining. The less than 48 h decrease in atmospheric oxygen exposure generated high-quality proteins with reduced precipitate.”, “No change in pH occurred following substrate addition.” left out
as §2, with “injections.” for “injections. Protein concentrations varied from 10 to 150 µM to achieve an optimal C value and curve shape valid for parameter calculation.”

[8] = biological target: T2, MLP15 (Papaver somniferum, UniProt P19825); assay: ANS displacement assay; details: for IC50: IC50, MLP15; for IC50 / Log10IC50: 10 µM protein and 10 µM ANS, CBS pH 5.5; for Log10IC50 / Hill Slope: MLP15; for Hill Slope: ANS displacement dose-response fit
T2 sequence (P19825 1-159): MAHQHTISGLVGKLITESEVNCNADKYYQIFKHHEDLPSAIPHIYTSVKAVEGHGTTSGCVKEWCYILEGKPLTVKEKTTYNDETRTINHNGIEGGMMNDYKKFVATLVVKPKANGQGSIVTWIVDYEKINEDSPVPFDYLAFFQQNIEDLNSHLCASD
Method: as §5, §6

[9] = biological target: T3, PR10-10 (Papaver somniferum, UniProt A0A9Y2YA81); assay: ANS displacement assay; format: binding; details: ANS displacement dose-response fit
T3 sequence (A0A9Y2YA81 1-158): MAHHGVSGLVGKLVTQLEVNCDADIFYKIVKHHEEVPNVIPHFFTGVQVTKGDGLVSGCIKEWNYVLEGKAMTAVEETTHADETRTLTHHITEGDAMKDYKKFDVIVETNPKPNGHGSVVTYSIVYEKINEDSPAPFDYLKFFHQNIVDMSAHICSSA
Excerpt: as §3, §4

[10] = 10 µM protein and 10 µM ANS, CBS pH 5.5

Row | SMILES | Kd [1] [µM] | Kd [2] [µM] | IC50 [2] | Log10IC50 [2] | Hill Slope [2] | IC50 [4] [µM] | Log10IC50 [4] | Kd [4] [µM] | IC50 [5] [µM] | Log10IC50 [5] | Kd [5] [µM] | ΔH [6] [kcal/mol] | ΔS [6] [cal/mol/˚K] | N [6] | Kd [6] | ΔH [7] [kcal/mol] | ΔS [7] [cal/mol/˚K] | N [7] | Kd [7] | Kd [8] [µM] | other results
1 | COC1=CC=C2[C@H]3Cc4ccc(OC)c5c4[C@@]2(CCN3C)[C@H]1O5 [Thebaine, thebaine] | 21.6 ± 0.71 | 171 | 199 µM and 200 µM | 2.30 ± 0.14 | 0.92 ± 0.16 | 394 | 2.60 ± 0.20 | 292 | 445 | 2.65 ± 0.21 | 432 | 2.45 ± 0.09784 | 28.8 | 0.523 ± 0.0156 | 31 µM and 31.2 µM | -2.396 ± 0.1109 | 13.6 | 0.786 ± 0.0251 | 18 µM and 18.2 µM | 612 | Kd ([1]; listed as thebaine): 22 µM; IC50 [3, 10]: 2570 µM; Log10IC50 [3, 10]: 3.41 ± 1.42; Kd ([3]; from average IC50 and PR10-ANS Kd, competitive inhibition assumed, read-out: Estimated Kd): 2350 µM; IC50 [8]: 690 µM; Log10IC50 [8]: 2.84 ± 0.23; Hill Slope [8]: -1.05 ± 0.19
2 | COc1ccc2c3c1O[C@H]1[C@@H](O)C=C[C@H]4[C@@H](C2)N(C)CC[C@@]341 [Codeine, codeine] | 140 ± 13.6 | 24.2 | 28 µM and 28.2 µM | 1.45 ± 0.13 | -0.72 ± 0.13 | 203 | 2.31 ± 0.14 | 151 | 1500 | 3.18 ± 0.36 | 1460 | 1.868 ± 0.0686 | 27.2 | 0.51 ± 0.0145 | 26 µM and 26.5 µM | -3.556 ± 0.02607 | 13.9 | 1.07 ± 0.00547 | 2 µM and 2.22 µM | 931 | Kd ([1]; listed as codeine): 140 µM; IC50 [8]: 1050 µM; Log10IC50 [8]: 3.02 ± 0.17; Hill Slope [8]: -0.97 ± 0.13; Hill Slope [9]: ~ 0.13 ± 0.35
